What was measured:
COX-1 = target: T1, COX-1 (Ovis aries, UniProt P05979); assay: Inhibitory Activity on COX-1 (Assay Example 1); type: biochemical; conditions: Table 1; read-out: COX Inhibiting Activity IC50, COX-1
T1 construct: purchased Cayman Chemical Co
T1 sequence (P05979 25-600): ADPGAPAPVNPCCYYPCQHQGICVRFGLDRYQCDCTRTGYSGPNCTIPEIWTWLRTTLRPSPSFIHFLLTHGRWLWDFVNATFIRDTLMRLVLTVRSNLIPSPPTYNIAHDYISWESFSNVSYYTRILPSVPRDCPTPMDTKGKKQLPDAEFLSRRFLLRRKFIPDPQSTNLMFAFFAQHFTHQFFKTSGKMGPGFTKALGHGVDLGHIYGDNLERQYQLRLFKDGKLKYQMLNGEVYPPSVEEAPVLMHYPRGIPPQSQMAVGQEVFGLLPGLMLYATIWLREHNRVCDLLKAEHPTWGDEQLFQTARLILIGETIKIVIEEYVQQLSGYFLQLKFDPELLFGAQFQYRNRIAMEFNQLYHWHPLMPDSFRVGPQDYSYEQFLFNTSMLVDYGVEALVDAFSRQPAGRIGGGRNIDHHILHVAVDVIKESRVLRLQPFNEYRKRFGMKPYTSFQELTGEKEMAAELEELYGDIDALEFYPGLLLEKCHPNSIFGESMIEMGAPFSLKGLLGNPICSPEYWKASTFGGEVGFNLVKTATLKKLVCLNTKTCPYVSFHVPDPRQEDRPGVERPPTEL

[1] = system: rat adjuvant-induced arthritis; assay: Inhibitory Action on Adjuvant Arthritis (1) (Assay Example 2); type: in vivo, male Fisher rats; conditions: oral 5 mg/kg; for % Inhibition against Change in Relative Weight, Spleen / % Inhibition against Change in Relative Weight, Thymus: 7 times, relative weight per 100 g body weight, day 21; for % Inhibition against Reduction of Gain in Body Weight / Edema Inhibition (%) Left Hind Paw (Non-inflamed Paw) / Edema Inhibition (%) Right Hind Paw (Inflamed Paw) / Inflammation Score Inhibition (%): days 0, 3, 7, 10, 14, 17, 20; for % Inhibition against Reduction of Gain in Body Weight / Edema Inhibition (%) Left Hind Paw (Non-inflamed Paw) / Edema Inhibition (%) Right Hind Paw (Inflamed Paw): measured day 21; for Inflammation Score Inhibition (%): scored day 21
Method: Dry Mycobacterium butyricum killed organisms (Difco) were suspended in liquid paraffin to make the concentration 1% and the resulting suspension used as an adjuvant. The adjuvant (50 μl) was subplantarly injected to the right hind paw of male Fisher rats (5 to 6 animals per group) to raise arthritis. Each test compound was suspended in a 0.5% aqueous sodium carboxymethylcellulose (CMC-Na) solution and orally administered to the rats at a dose of 5 mg/kg on days 0, 3, 7, 10, 14, 17 and 20 (7 times in total) after the arthritis induction. On the 21st disease day the rats were measured for their body weight and the edema of their right and left hind paws. Simultaneously, systemic inflammatory states were scored. In addition, each of their spleen and thymus was taken out by excision to measure their wet weight and their relative weight per 100 g body weight was calculated.

[2] = system: acetic acid writhing in male ddY mice; assay: Analgesic Action in Acetic Acid Writhing (Assay Example 3); type: in vivo
Method: A 0.7% acetic acid solution was intraperitoneally administered to male ddY mice at a dose of 10 ml/kg body weight. The frequency of writhing manifested was counted as an index of pains for a period of 10 minutes starting from the 10th minute after the administration. Ten or thirty minutes prior to the acetic acid administration, each test compound was orally given.

COX-2 = target: T2, COX-2 (Ovis aries, UniProt P79208); assay: Inhibitory Activity on COX-2 (Assay Example 1); type: biochemical; conditions: Table 1; for IC50: read-out: COX Inhibiting Activity IC50, COX-2
T2 construct: purchased Cayman Chemical Co
T2 sequence (P79208 17-603): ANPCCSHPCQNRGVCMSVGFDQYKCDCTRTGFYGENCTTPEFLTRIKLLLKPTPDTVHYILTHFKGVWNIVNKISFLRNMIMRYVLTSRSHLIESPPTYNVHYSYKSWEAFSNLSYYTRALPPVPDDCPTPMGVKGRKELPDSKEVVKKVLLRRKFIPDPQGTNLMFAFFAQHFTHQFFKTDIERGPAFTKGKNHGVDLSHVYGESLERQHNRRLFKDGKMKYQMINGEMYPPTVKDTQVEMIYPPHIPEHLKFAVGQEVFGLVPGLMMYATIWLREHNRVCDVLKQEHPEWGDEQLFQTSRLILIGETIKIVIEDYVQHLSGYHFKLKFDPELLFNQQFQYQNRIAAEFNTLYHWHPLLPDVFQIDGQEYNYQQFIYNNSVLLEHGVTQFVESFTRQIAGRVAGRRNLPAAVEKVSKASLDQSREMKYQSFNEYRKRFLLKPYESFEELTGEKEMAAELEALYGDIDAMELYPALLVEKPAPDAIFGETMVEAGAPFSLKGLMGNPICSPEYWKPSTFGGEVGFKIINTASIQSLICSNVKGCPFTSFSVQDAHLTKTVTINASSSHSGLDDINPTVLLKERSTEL

[3] = system: oxazolone-induced dermal delayed type hypersensitivity (IV-type allergy); assay: Inhibitory Action on Oxazolone-Induced Dermal Delayed Type Hypersensitivity (Assay Example 8); type: in vivo, mice; conditions: for edema inhibition / increase in edematized auricle thickness: 4 days, 24 hours after challenge; for increase in edematized auricle thickness: control (0.12±0.03) mm
Method: Sensitization was conducted by topically applying 150 μl of 1% oxazolone solution (ethanol:acetone=3:1) to mice (5 to 6 animals per group), the abdominal and pectral regions of which were shaved in advance. Four days after the sensitization, 10 μl of 0.8% oxazolone solution (in olive oil) was topically applied to the […] left auricle to raise the response. Twenty-four hours later the auricular thickness was measured using a dial-gauge (Mitsutoyo Co.). Values obtained by subtracting auricular thickness data prior to the challenge were taken as indexes of the response. […] One hour after the final administration, the challenge was conducted.

[4] = system: Arthus reaction (III-type allergy); assay: Inhibitory Action on Arthus Reaction (Assay Example 7); conditions: for increase in edematized left hind paw volume / edema inhibition: one hour prior to ovalbumin; for increase in edematized left hind paw volume: 2 hours, control (0.74±0.06) ml; for edema inhibition: significant, not more than 1% error level
Method: Rat anti-ovalbumin serum was prepared by the method given below. One mg of ovalbumin was dissolved in 1 ml of physiological saline and divided to two aliquots. The ovalbumin solution was intramuscularly administered to the femoral portion of male SD rats. Simultaneously, 0.5 ml of 0.05% Mycobacterium butyricum suspension as a Freund's complete adjuvant was intraperitoneally administered to the rats. Three days later, the same treatments were repeated. On the 12th day after the initial sensitization,antisera were collected.
Two hours later, the left hind paw volume was measured using a plethysmometer and the increases in paw volume were determined by comparing with those prior to the Arthus reaction induction. […] Each compound was suspended in a 0.5% aqueous CMC-Na solution and orally administered one hour prior to the ovalbumin administration. Control groups received only a 0.5% aqueous CMC-Na solution. The test of significance was conducted by Dunnett's multiple range test.

[5] = system: adjuvant arthritis in rats; assay: Inhibitory Action on Adjuvant Arthritis (2) (Assay Example 6); type: in vivo, male F344/Du (Fisher) rats; conditions: oral 1 mg/5 ml/kg daily, 17 days
Method: A 1% dry Mycobacterium tuberculosis H37 RA killed organism suspension in liquid paraffin was employed as an adjuvant. The adjuvant suspension (50 μl) was subplantarly administered to the right hind paw of male F344/Du (Fisher) rats (5 to 6 animals per group) to raise arthritis. […] The next day after the final administration, the rats were measured for their body weight and the edema of their right and left hind paws. Simultaneously, systemic inflammatory states were scored. In addition, each of their spleen and thymus was taken out by excision to measure their wet weight and their relative weight per 100 g body weight was determined.

SMILES	IC50 (COX-1)	% Inhibition against Change in Relative Weight, Spleen [1]	% Inhibition against Change in Relative Weight, Thymus [1]	% Inhibition against Reduction of Gain in Body Weight [1]	Edema Inhibition (%) Left Hind Paw (Non-inflamed Paw) [1]	Edema Inhibition (%) Right Hind Paw (Inflamed Paw) [1]	Inflammation Score Inhibition (%) [1]	COX-1/COX-2 (ratio of IC50 values) (COX-2)	IC50 (COX-2)	other results
CS(=O)(=O)c1ccc(-n2nc(C(F)(F)F)cc2-c2nc3ccc(F)cc3s2)cc1 [Example 2, 6-Fluoro-2-[1-(4-methylsulfonylphenyl)-3-trifluoromethyl-1H-pyrazol-5-yl]benzothiazole]	> 100 µM	2.5%	56.7%	75.9%	91%	94%	97%	> 263	0.38 µM	% Inhibition of Writhing Response ([2]; 10 mg/kg oral, Administration Point 1: 10 minutes prior to acetic acid): 49%; % Inhibition of Writhing Response ([2]; 10 mg/kg oral, Administration Point 2: 30 minutes prior to acetic acid): 57%
CS(=O)(=O)c1ccc(-n2nc(C(F)(F)F)cc2-c2nc3c(F)cccc3s2)cc1 [Example 6, 4-Fluoro-2-[1-(4-methylsulfonylphenyl)-3-trifluoromethyl-1H-pyrazol-5-yl]benzothiazole]	> 100 µM	42.6%	130.3%	104.6%	105%	84%	97%	> 23.3	4.3 µM	edema inhibition ([3]; 30 mg/kg oral daily): 48%; increase in edematized auricle thickness ([3]; 30 mg/kg oral daily): 0.06±0.01 mm; action on oxazolone-induced delayed type hypersensitivity, in words ([3]; index test for immunoregulating activity, IV-type allergy): controlling actions; increase in edematized left hind paw volume ([4]; 50 mg/kg oral): 0.54 ± 0.04 mL; edema inhibition ([4]; 50 mg/kg oral): 27%; action on Arthus reaction, in words ([4]; index test for immunoregulating activity, III-type allergy): controlling actions
NS(=O)(=O)c1ccc(-n2nc(C(F)(F)F)cc2-c2nc3ccc(F)cc3s2)cc1 [Example 13, 4-[5-(6-Fluorobenzothiazol-2-yl)-3-trifluoromethyl-1H-pyrazol-1-yl]benzenesulfonamide]	47 µM	-10.5%	71.3%	48.6%	76%	71%	78%	142	0.33 µM	–
COc1ccc2c(c1)c(CC(=O)O)c(C)n2C(=O)c1ccc(Cl)cc1 [Indomethacin, reference compound]	–	–	–	19.8%	75%	43%	51%	–	–	% Inhibition of Writhing Response ([2]; po, 3 mg/kg): 28%
CS(=O)(=O)c1ccc(-n2nc(C(F)(F)F)cc2-c2ccc(F)cc2)cc1 [SC-58125, 5-(4-fluorophenyl)-1-(4-methylsulfonylphenyl)-3-trifluoromethyl-1H-pyrazole, reference compound]	–	–	–	96.9%	95%	76%	96%	–	–	% Inhibition of Writhing Response ([2]; 30 mg/kg oral, Administration Point 1: 10 minutes prior to acetic acid): 22%
Cc1ccc(-c2cc(C(F)(F)F)nn2-c2ccc(S(N)(=O)=O)cc2)cc1 [YM-177, 4-[5-(4-methylphenyl)-3-trifluoromethyl-1H-pyrazol-1-yl]benzenesulfonamide, reference compound]	–	–	–	25.5%	65%	37%	44%	–	–	% Inhibition of Writhing Response ([2]; po, 30 mg/kg): 17%; % Inhibition against Reduction of Gain in Body Weight ([5]; measured next day): 21%; Edema Inhibition (%) Left Hind Paw (Non-inflamed Paw) ([5]; measured next day): 60%; Edema Inhibition (%) Right Hind Paw (Inflamed Paw) ([5]; measured next day): 41%; Inflammation Score Inhibition (%) ([5]; scored next day): 49%
C[C@]12C=CC(=O)C=C1CC[C@@H]1[C@@H]2[C@@H](O)C[C@@]2(C)[C@H]1CC[C@]2(O)C(=O)CO [prednisolone, reference compound]	–	–	–	–	–	–	–	–	–	edema inhibition ([3]; 10 mg/kg oral daily): 70%; increase in edematized auricle thickness ([3]; 10 mg/kg oral daily): 0.04±0.01 mm; increase in edematized left hind paw volume ([4]; 10 mg/kg oral): 0.51 ± 0.02 mL; edema inhibition ([4]; 10 mg/kg oral): 31%

Source: US6136831A, “Pyrazole derivatives and COX inhibitors containing them” (Grelan Pharmaceutical Co., Ltd., priority 1997, dated 2000)
